Source: patent publication US20220257639A1, “TREATMENT OF PATIENTS UNDER ANTIPLATELET MEDICATION EXPERIENCING ACUTE BLEEDING COMPLICATIONS DURING/AFTER SURGERY” (priority 2019, published 2022)

B1: PEAR1-EC: PEAR1 extracellular domain protein (Kauskot et al.) (protein, UniProt Q5VY43 21-755, looked up)
extracellular domain: LNPSDPNTCSFWESFTTTTKESHSRPFSLLPSEPCERPWEGPHTCPQPTVVYRTVYRQVVKTDHRQRLQCCHGFYESRGFCVPLCAQECVHGRCVAPNQCQCVPGWRGDDCSSECAPGMWGPQCDKPCSCGNNSSCDPKSGVCSCPSGLQPPNCLQPCTPGYYGPACQFRCQCHGAPCDPQTGACFCPAERTGPSCDVSCSQGTSGFFCPSTHSCQNGGVFQTPQGSCSCPPGWMGTICSLPCPEGFHGPNCSQECRCHNGGLCDRFTGQCRCAPGYTGDRCREECPVGRFGQDCAETCDCAPDARCFPANGACLCEHGFTGDRCTDRLCPDGFYGLSCQAPCTCDREHSLSCHPMNGECSCLPGWAGLHCNESCPQDTHGPGCQEHCLCLHGGVCQATSGLCQCAPGYTGPHCASLCPPDTYGVNCSARCSCENAIACSPIDGECVCKEGWQRGNCSVPCPPGTWGFSCNASCQCAHEAVCSPQTGACTCTPGWHGAHCQLPCPKGQFGEGCASRCDCDHSDGCDPVHGRCQCQAGWMGARCHLSCPEGLWGVNCSNTCTCKNGGTCLPENGNCVCAPGFRGPSCQRSCQPGRYGKRCVPCKCANHSFCHPSNGTCYCLAGWTGPDCSQPCPPGHWGENCAQTCQCHHGGTCHPQDGSCICPLGWTGHHCLEGCPLGTFGANCSQPCQCGPGEKCHPETGACVCPPGHSGAPCRIGIQEPFTVMPTTPVAYNSL
modifications: extracellular domain

What was measured:
[1] = system: human platelets in plasma; test: Platelet aggregation in platelet-rich plasma (light transmission aggregometry); format: cell-based; conditions: 20 min, n=5, mean±S.E.M.
Description: With approval from the regional ethical board Örebro-Uppsala county (Dnr 2015/543) blood was obtained from healthy volunteers, who denied to have taken any medication two weeks prior to donation, by venipuncture and drawn into 10 ml syringes preloaded by the supplier with trisodium citrate solution (Sarstedt, Nümbrecht, Germany, Order number: 02.1067.001) The blood was and centrifuged at 220 g for 20 min. The PRP thus obtained was transferred into fresh 15 ml polypropylene tubes, and the remaining blood was centrifuged at 2200 g for 20 min to separate the PPP from remaining blood cells.
Measurements were performed at 37° C. using Chrono-Log lumi-aggregometer (Model 700, Chrono-log Corporation, Havertown, Pa., USA) with stirring at 900 rev./min using a final volume of 0.3 ml platelet suspension. Aggregation is expressed as percentage light transmission compared with PPP alone (=100%).
Platelets were preincubated with vehicle or AR-C66096 as indicated for 5 min followed by the stimulation with 1 μg/ml collagen, 10 μM SFLLRN, 30 μg/ml C34, 10 μg/ml fucoidan, or 30 μg/ml dextran sulfate (DxS) (FIG. 4A).
Platelets were preincubated with vehicle or ICI 192,506 as indicated for 5 min followed by the stimulation with 1 μg/ml collagen, 10 μM SFLLRN, 30 μg/ml C34, 10 μg/ml fucoidan, or 30 μg/ml dextran sulfate (DxS) (FIG. 4B).
Platelets were preincubated with vehicle or AR-C66096 and ICI 192,506 as indicated for 5 min followed by the stimulation with 1 μg/ml collagen, 10 μM SFLLRN, 30 μg/ml C34, 10 μg/ml fucoidan, or 30 μg/ml dextran sulfate (DxS) (FIG. 4C).

[2] = system: human platelets in plasma; test: as above; format: cell-based; conditions: in the presence of both TPα and P2Y12 antagonists (dual inhibition; DAPT), FIG. 3
[3] = system: washed (isolated) human platelets; conditions: from Kauskot et al. [4]; cited from earlier work
[4] = FIG. 4A, in the presence of P2Y12 receptor antagonist AR-C66096 (5 min preincubation), same agonist concentrations
[5] = FIG. 4A, vehicle preincubation (no antagonist), 1 μg/ml collagen, 10 μM SFLLRN, 30 μg/ml C34, 10 μg/ml fucoidan, 30 μg/ml DxS
[6] = FIG. 4B, in the presence of TPα receptor antagonist ICI 192,605 (5 min preincubation), same agonist concentrations
[7] = FIG. 4B, vehicle preincubation (no antagonist), same agonist concentrations
[8] = FIG. 4C, dual inhibition with AR-C66096 and ICI 192,605 (5 min preincubation), same agonist concentrations
[9] = FIG. 4C, vehicle preincubation (no antagonist), same agonist concentrations

Molecule	extent of platelet aggregation (percentage light transmission compared with PPP) [1, 4]	extent of platelet aggregation (percentage light transmission compared with PPP) [1, 5]	extent of platelet aggregation (percentage light transmission compared with PPP) [1, 6]	extent of platelet aggregation (percentage light transmission compared with PPP) [1, 7]	extent of platelet aggregation (percentage light transmission compared with PPP) [1, 8]	extent of platelet aggregation (percentage light transmission compared with PPP) [1, 9]	course of platelet aggregation under dual inhibition (reversibility of first phase) [2]	aggregation of washed human platelets [3]
Collagen	23±4%	85±2%	21±4%	90±3%	11±2%	86±2%	only the first but reversible phase	
SFLLRN	5±1%	91±3%	15±6%	91±3%	3±1%	93±2%	only the first but reversible phase	
dextran sulfate [DxS]	23±6%	84±5%	39±7%	88±6%	37±6%	88±6%	irreversible and sustained	
B1								induce aggregation of washed (isolated) human platelets in a concentration-dependent fashion
